Assay results: patent US20120016014A1, “BENZOTHIOPHENE CARBOXAMIDE COMPOUNDS, COMPOSITION AND APPLICATIONS THEREOF” (INDIAN INSTITUTE OF SCIENCE, priority 2010, published 2012)

Assays:
purified PfENR [1] = target: T1, purified PfENR (Plasmodium falciparum, UniProt Q9BH77); test: PfENR inhibition, standard enzyme assay; assay type: biochemical; details: read-out: Inhibition of PfENR (IC50 μM)
T1 sequence (Q9BH77 22-432): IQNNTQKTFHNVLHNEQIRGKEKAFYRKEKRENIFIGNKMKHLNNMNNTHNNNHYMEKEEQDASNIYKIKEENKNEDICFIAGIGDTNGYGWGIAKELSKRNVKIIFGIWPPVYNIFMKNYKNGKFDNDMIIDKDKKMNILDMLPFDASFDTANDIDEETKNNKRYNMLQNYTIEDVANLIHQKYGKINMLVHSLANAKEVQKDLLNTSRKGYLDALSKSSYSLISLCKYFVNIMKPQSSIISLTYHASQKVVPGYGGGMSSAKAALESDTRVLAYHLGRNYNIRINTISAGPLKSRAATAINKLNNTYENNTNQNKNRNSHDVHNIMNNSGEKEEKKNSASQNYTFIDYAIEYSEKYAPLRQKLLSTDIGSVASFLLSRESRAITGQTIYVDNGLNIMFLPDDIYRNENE
Procedure: (§1) PfENR activity was determined using standard assay described earlier.

[2] = test system: Plasmodium falciparum 3D7; test: In vitro inhibition of P. falciparum 3D7 blood-stage parasites; assay type: cell-based
Procedure: Benzothiophene carboxamide derivatives of the present invention were checked for their anti-parasitic activity against 3D7 (chloroquine sensitive strain) in an in vitro culture. […] To find out parasite stage where these compounds act, synchronised ring stage culture of P. falciparum was treated with 2.5 μM concentration of compounds 6 and 7. […] When compounds 6 and 7 were added at the trophozoite stage the cells could not proceed to the schizont stage indicating the growth inhibition occurs at trophozoite stage.
Synchronised culture of P. falciparum 3D7 was treated with 2.5 μM compound 10 and 11 at the ring stage.

purified PfENR [3] = target: T1, purified PfENR; test: PfENR inhibition kinetics, cofactor potency and progress curve analysis; assay type: biochemical
Procedure: as §1
The accumulation of product further decreased when compound 6 was preincubated with the enzyme (curve c). On addition of NAD+ to this reaction the rate of product accumulation further decreased (curve d).
Progress curves for inhibition by varying concentrations of compounds 6 and 7 were examined in detail (FIGS. 16a and 16b). From the progress curve analyses, it was inferred that for each concentration of the inhibitors the initial and the steady state velocity decreased exponentially with time. At higher inhibitor concentration, steady state is reached rapidly with a decrease in steady state velocity (vs). […] Progress curves were analysed using equation 3a from which a series of Kobs values were obtained for each concentration of inhibitor.

[4] = test system: hepatic cell stages of P. berghei; test: Inhibition of hepatic cell stages (EEFs) of P. berghei; assay type: cell-based
HepG2 cells = test: Toxicity to HepG2 cells; assay type: cell-based; details: one day treatment
[5] = test system: blood-stage P. berghei ANKA; test: Experimental cerebral malaria in C57BL/6 mice; assay type: in vivo; details: for Mean Survival Days (Observed for 25 days): 5 mg/kg body weight daily for six days
Procedure: C57BL/6 mice were infected with blood-stage P. berghei ANKA as discussed in the experimental section. After 24 hours of infection mice were treated intravenously with various doses of inhibitors. It was observed that all control mice developed hypothermia by day 2, ataxia and convulsions by day 3 and died by day 6, whereas inhibitor treated groups had considerably higher longevity (11-24 days). Though each group of mice developed hypothermia by day 4, convulsions and ataxia development were delayed in case of treated mice. […] The mice treated with 2.5 mg/kg body weight survived for 18 days. Even at or below 1 mg/kg body weight of inhibitor dose, the mice survived for 11 days, but paralysis and ataxia development occurred on Day 7.
[…]. The mice were treated for 6 days. […]. Chloroquine was used as the control drug. […].
Therefore, compounds 10 and 11 were also administered at 5 mg/Kg body weight. The compounds were administered through intraperitoneal, peroral, subcutaneous and intravenous routes. Compound 10 and 11 were administered once daily for 6 days. […]. The mean survival days for this treatment group was 16 (FIG. 12c and Table III). […]. Chloroquine was used as the control drug.

[6] = Hot plate latency test (thermal hyperalgesia); assay type: in vivo, rats
Procedure: The animals were housed in an animal house facility of National Institute of Immunology, India, with controlled temperature (22±2° C.) under a 12/12 h light/dark cycle. They had free access to food and water ad libitum. All experiments were conducted according to the guidelines of the international association for the study of pain and approved by the institutional ethical committee for animal research. All in vivo experiments were carried out on inbred male […] rats ( 200-320 g body weight). Same age and equal body weight of animals were used according to experiments. No animals were used for more than one experiment. Most popular non-steroidal anti-inflammatory drugs which are widely use for treatment of chronic and inflammatory pain, such as Ibuprofen, Naproxen, Ketoprofen, Aspirin, Nimesulide, Indomethacine were purchased from Cayman Chemicals, USA and used to evaluate the efficacy of drugs in animal model. These drugs and different derivatives of Benzothiophene were dissolved in minimum volume of Dimethyl sulfoxide (DMSO) and further diluted in Phosphate buffer saline prior to use. […] Withdrawal latency for tail flicking was measured. […] NSAIDs is commonly evaluated by hot plate latency assay whereby animals are exposed to thermal stimulus (54 degree […] time for hind paw licking is measured as behavioural response for pain.

[7] = Mechanical hyperalgesia, Randall-Selitto, carrageenan induced; assay type: in vivo, rats; details: 15 mg/kg b wt., after 1 hrs, basal level in 5 hrs
Procedure: Mechanical hyperalgesia was measured as hind limb withdrawal threshold in response to a mechanical stimulus applied to hind paws of rat using Randall-selitto meter, Randall and Selitto, 1957. To determine the mechanical hyperalgesia, the force was applied with increased pressure at a constant rate until the animal withdrew its limb. The base line nociceptive threshold was measured before induction of hyperalgesia. Moreover, hyperalgesia was induced by carrageenan and then groups of animal were treated with compound 4, compound 6 and compound 8 (15 mg/kg body weight) and Ibuprofen (50 mg/kg body weight). Control group was treated with physiological saline. […] The anti-nociceptive efficacy of the compounds has been evaluated the efficacy with paw withdrawal threshold latency of animals.

Tail flick latency test = details: 15 mg/kg b. wt. vs Ibuprofen 50 mg/kg b. wt., 30 min and 60 min post injection
Procedure: Hot plate latency test was performed under red light on the metal surface of hot plate analgesia meter (IITC, Life science, CA). Animals were placed individually on the surface of hot plate maintained at a constant temperature 54±1° C. The anti-nociceptive response was latency recorded from the time when animal was placed on the heated surface until the behavior response show licking of hind paw to avoid thermal nociception. A maximum hot plate latency of 30 sec was used for each animal to prevent paw tissue damage. Base line nociceptive latency was obtained for each animal prior to any drug administration. Thereafter, groups of animals were treated with different concentration of different derivatives of benzothiophene and well known NSAIDs. […] Subsequent nociceptive response latency for each animal was determined at 30 and 60 min after drug administration. […] In continuation of tail flick latency assay, the anti-nociceptive effect of the compounds was monitored. Rats treated as described above were subjected to determination of thermal nociceptive pain. Rats were confined in restrainer and allowed to accommodate. The tail withdrawal test consisted of immersing the posterior 8-10 cm of the tail in hot water bath maintained at 54±1° C. Withdrawal latency for tail flicking was measured. A maximum tail flick latency of 20 sec was permitted to minimize tissue damage.

For `O=C(NCc1ccc(F)cc1)c1sc2ccccc2c1Br` [Compound 6, N-(4-fluorobenzyl)-3-bromobenzo[b]thiophene-2-carboxamide], which IC50 (purified PfENR [1]) is on record?
Its IC50 is 0.115 ± 0.12 µM.

And the “Stage of parasite growth arrest” value ([2]; 2.5 μM, added at ring stage, P. falciparum 3D7)?
Its value is “arrested at the trophozoite stage”.

And the “Parasites observed to be dead” value ([2]; 2.5 μM, synchronised ring stage culture of P. falciparum 3D7)?
The value was ~90%.

And the IC50 ([2]; Erythrocyte, growth inhibition, red blood cell stages of Plasmodium falciparum 3D7 (chloroquine sensitive), read-out: P. falciparum (IC50 μM))?
Its IC50 is 1 ± 0.3 µM.

What about the “Effect of NAD+ on binding to PfENR (cofactor potency assay)” value (purified PfENR [3]; 10 μM NAD+ added to preincubated mixture) of the same compound?
Its value is “potentiate the binding”.

And the “Inhibition kinetics with respect to NADH” value (purified PfENR [3]; Dixon plot, cofactor NADH)?
Its value is “competitive kinetics with NADH”.

And the “Inhibition kinetics with respect to crotonoyl CoA” value (purified PfENR [3]; Dixon plot, substrate crotonoyl CoA)?
The value was “uncompetitive against crotonoyl CoA”.

And the “Binding behaviour from progress curves” value (purified PfENR [3]; inhibitor 0-750 nM)?
Its value is “slow tight binding behaviour”.

What about the “Isomerization rate constant (k5 * 10^−2) (s^−1)” value (purified PfENR [3]; purified PfENR, progress curves) of the same compound?
Its value is 1.19 ± .045 10^−2 s^−1.

What about the koff (purified PfENR [3]; purified PfENR, progress curves, read-out: Dissociation rate constant (k6* 10^−3)) of the same compound?
The koff was 0.001 s⁻¹.

And the Ki (purified PfENR [3]; purified PfENR, read-out: Dissociation constant (Ki))?
The Ki was 0.0489 µM.

And the IC50 ([4]; Plasmodium berghei, 48 h, hepatic cell stages of P. berghei, two days treatment)?
Its IC50 is 51 µM.

What about the “Therapeutic Index (TI) [=TC50/IC50]” value ([4]; TC50 HepG2 / IC50 EEFs) of the same compound?
Its value is 39.0 ± 4.

And the “TC50 for HepG2 cells” value (HepG2 cells)?
Its value is 2000 ± 200 µM.

And the “Survival, dose determination” value ([5]; 2.5 mg/kg body weight intravenously, C57BL/6 mice)?
The value was 18 days.

What about the “Kidney and liver functions (urea, creatinine and glucose levels)” value ([5]; 5 mg/kg body weight) of the same compound?
The value was “normal kidney and liver functions”.

What about the “Survival, dose determination” value ([5]; 5 mg/kg body weight intravenously, C57BL/6 mice) of the same compound?
Its value is 24 days.

What about the “Survival, dose determination” value ([5]; 10 mg/kg body weight intravenously, C57BL/6 mice) of the same compound?
Its value is 20 days.

And the “Mean Survival Days (Observed for 25 days)” value (from here on “Mean Survival Days”) ([5]; Intraperitoneal, C57BL/6 mice, 5 mg/kg)?
Its value is 20 ± 0.9 days.

And the “Mean Survival Days” value ([5]; Intraperitoneal, C57BL/6 mice, listed as compound 6, 5 mg/kg)?
The value was 21 days.

What about the “Mean Survival Days” value ([5]; Intravenous, C57BL/6 mice, 5 mg/kg) of the same compound?
Its value is 24 ± 2.0 days.

What about the “Mean Survival Days” value ([5]; Intravenous, C57BL/6 mice, listed as compound 6, 5 mg/kg) of the same compound?
The value was 24 days.

And the “Mean Survival Days” value ([5]; Per oral, C57BL/6 mice)?
Its value is 12 ± 1.2 days.

What about the “Mean Survival Days” value ([5]; Subcutaneous, C57BL/6 mice, 5 mg/kg) of the same compound?
Its value is 18 ± 1.3 days.

What about the “Mean Survival Days” value ([5]; Subcutaneous, C57BL/6 mice, listed as compound 6, 5 mg/kg) of the same compound?
The value was 21 days.

And the “Survival, dose determination” value ([5]; at or below 1 mg/kg body weight intravenously, C57BL/6 mice)?
The value was 11 days.

What about the “Parasitemia levels (Peter's test)” value ([5]; intravenous treatment, C57BL/6 mice) of the same compound?
The value was “undetectable level by Day 18”.

And the Increase of longevity ([5]; oral route, 5 mg/kg body weight, 6 days treatment)?
Its Increase of longevity is 5 days.

What about the “MPE index, hot plate latency assay” value ([6]; 15 mg/kg b. wt. i.p., 30 and 60 min) of the same compound?
The value was “preeminent analgesic activity compared to other compounds”.

What about the “Analgesic activity compared with Ibuprofen, hot plate” value ([6]; compounds 15 mg/kg b. wt. vs Ibuprofen 50 mg/kg b. wt.) of the same compound?
The value was “potent analgesic activity at much lower concentration than Ibuprofen”.

And the “Mechanical hyperalgesia, paw withdrawal threshold” value [7]?
Its value is “significantly reversed the mechanical hyperalgesia”.

And the “Anti-nociceptive response, tail flick latency assay” value (Tail flick latency test)?
Its value is “better anti-nociceptive response than the Ibuprofen”.
